For data set [1], the system named is herpes simplex virus type I (HF strain). As to the kind of experiment: Effect on the growth of herpes virus in tissue cultures (tube dilution method). To be noted: for MIC: read-out: MIC (minimum virus growth inhibitory concentration); for MIC (minimum virus growth inhibitory concentration): host cells KB. Type of data set: cell-based. How it is done:
The antiviral activity was examined by the tube dilution method. HeLa cells and KB cells for the assay were cultured in YLE medium and Eagle MEM medium in vitro, respectively, containing 10% fetal calf serum. After the cells were grown in a monolayer form, the medium was exchanged to the fresh medium supplemented with 2% fetal calf serum, and then about 1000 TCD50 of herpes simplex virus type I (HF strain) and the test compound were added. After 72 hours' incubation at 37° C., the cytotoxicity of the compound and the virus induced cytopathic effect (CPE) were observed microscopically.
The antiviral activity was expressed in minimum virus growth inhibitory concentration (MIC) and minimum cytotoxic concentration (MCC) in Table 1.

Data set [2] in a line: in vitro. To be noted: human, hela cells.
Data set [3] is described as follows: in vitro. As to conditions: human, kb cells.
The test system of the next data set is Influenza Ao PR/8. It counts as in vivo, ddY male mice. To be noted: 7 days after infection, dose 0: 4.8.
For data set [4], the system named is herpes and influenza viruses. The data set can be described thus: Antiviral activity, overall statement. As to conditions: against herpes and influenza viruses; in vivo as well as in vitro.
Data set [5] deals with herpes simplex virus type I (HF strain). The data set can be described thus: Therapeutic effect on herpes encephalitis in mice. It counts as in vivo. To be noted: for Survival ratio: 21st day, untreated 0/10; for Mean survival term: 21 days. How it is done:
Mice were anesthetized with ether and were infected intracerebrally […] with about 30 LD50 of herpes simplex virus type I (HF strain). The infected mice were administered with the compound A according to various therapeutic schedules. The therapeutic effects of the compound A were examined on the basis of the survival ratios at the 3rd week after virus infection and the mean survival days.
^a Dose of administration
^b Administration schedule of each route was as follows:
i.c. (intracerebrally): Single administration simultaneously with virus
p.o. (per os): Two administrations per day during 8.5 days from 4 hours
s.c. (subcutaneously): Two administrations per day during 8.5 days from 4
hours after virus infection.
i.v. (intravenously): Single administration 3 hours after virus infection
^c The animals were examined for 21 days after infection, and mean
survival term was determined.
^d Survival ratio on the 21st day after virus infection.

A further data set concerns eyes of a rabbit. As to the kind of experiment: Herpes keratitis in rabbit: toxicity control eyes (scratched, not infected). It counts as in vivo. As to conditions: 0.5% eye lotion. The procedure:
After 2% cocaine was applied to the eyes of a rabbit anesthetized with barbital, the corneal epithelium of each eye was scratched and infected with herpes simplex virus type I (HF strain).
The treatment with the compound A was carried out as follows: Twelve hours after virus infection, 0.5% eye lotion of the compound A in 1.4% polyvinyl alcohol was applied every two hours, five times a day during seven days.
For seven days after infection, the lesions on the conjunctiva, cornea and iris were daily observed visually prior to the first treatment and recorded according to the scoring method.
Separately from this, eyes of a rabbit were scratched but not infected with virus, one of the eyes was similarly treated with the compound A and the other eye was treated with 1.4% polyvinyl alcohol as toxicity control.

A short description of a further data set: Acute toxicity in mice. As to conditions: mouse, in vivo.
The mark [6] stands for this setting: about 1000 TCD50, 72 hours at 37° C.

Structures are written as SMILES. Where a name gives a salt, the structure may show the parent alone. Read-outs that look alike come from different tables or passages of the source. A value given as a limit tells only on which side of the number the result lay.

On to `NC12CC3CC(CC(C3)C1)C2` [Amantadine hydrochloride, reference compound], for which the MIC in data set [1] (72 h) is 50 µg/mL. Moreover, the “MIC (minimum virus growth inhibitory concentration)” value in data set [1] (setting [6]) is 50 µg/mL. The MCC at 72 h in the data set “in vitro [2]” and in “in vitro [3]” was more than 50 µg/mL each time. The “Lung Lesion Score” value was determined as 4.3 with Influenza Ao PR/8 (10 mg/kg subcutaneous, *P < 0.05); 4.1 in the data set with Influenza Ao PR/8 (25 mg/kg subcutaneous, *P < 0.05); 4.0 with Influenza Ao PR/8 (50 mg/kg subcutaneous, *P < 0.05).

Take `Cl.NC12CCCC(C1)C1CCC2C1` (stereo not drawn) [Compound A, 1-Amino-2,4-ethanobicyclo[3,3,1]nonane hydrochloride]: the MIC in data set [1] (host cells HeLa, about 1000 TCD50, 72 hours at 37° C.) was found to be 2.5 µg/mL. Besides, in data set [1] (setting [6]), the “MIC (minimum virus growth inhibitory concentration)” value came out at 2.5 µg/mL. Further, the MCC at 72 h in the data set “in vitro [2]” and in “in vitro [3]” was 100 µg/mL each time. In addition, in data set [4], the antiviral activity result is on record as “very strong antiviral activity”. Also, the Survival ratio in data set [5] (5 mg/kg i.c., single administration simultaneously with virus infection) was 6/10; in data set [5] (10 mg/kg i.v., single administration 3 hours after infection) it was 4/10; in data set [5] (100 mg/kg p.o., two per day during 8.5 days from 4 hours after infection), 4/10; in data set [5] (100 mg/kg s.c., two per day during 8.5 days from 4 hours after infection) it was 5/10. In addition, the Mean survival term in data set [5] (5 mg/kg i.c., single administration simultaneously with virus infection, untreated 5.7) was 8.3 days; in data set [5] (10 mg/kg i.v., single administration 3 hours after infection, untreated 5.8), 8.1 days; in data set [5] (100 mg/kg p.o., two per day during 8.5 days from 4 hours after infection, untreated 5.5) it was 7.7 days; in data set [5] (100 mg/kg s.c., two per day during 8.5 days from 4 hours after infection, untreated 5.7), 7.6 days. The “effect on cure period as compared with the toxicity control” value with eyes of a rabbit (five times a day during seven days, scratched uninfected rabbit eyes) is “did not prolong the cure period”. Besides, the “toxicity of the eye lotion” value in the data set on eyes of a rabbit (rabbit eyes) was “no toxicity”. Further, the 50% lethal dose (LD50) is 58 mg/kg in “Acute toxicity in mice” (iv) and 320 mg/kg in the data set “Acute toxicity in mice” (po). Moreover, the “Lung Lesion Score” value amounted to 4.4 in the data set with Influenza Ao PR/8 (7.5 mg/kg subcutaneous, no asterisk); 4.2 with Influenza Ao PR/8 (15 mg/kg subcutaneous, *P < 0.05); 4.0 in the data set on Influenza Ao PR/8 (30 mg/kg subcutaneous, *P < 0.05).

The LD50 is the dose at which mortality reaches 50%.

These data come from patent US4230725A, “Antiviral agent” (Sumitomo Chemical Company, Limited, priority 1977, dated 1980).
